In experiment [1] the target is T1, Succinate--CoA ligase [ADP-forming] subunit beta, mitochondrial (Homo sapiens, UniProt Q9P2R7).
T1 sequence (Q9P2R7 whole entry): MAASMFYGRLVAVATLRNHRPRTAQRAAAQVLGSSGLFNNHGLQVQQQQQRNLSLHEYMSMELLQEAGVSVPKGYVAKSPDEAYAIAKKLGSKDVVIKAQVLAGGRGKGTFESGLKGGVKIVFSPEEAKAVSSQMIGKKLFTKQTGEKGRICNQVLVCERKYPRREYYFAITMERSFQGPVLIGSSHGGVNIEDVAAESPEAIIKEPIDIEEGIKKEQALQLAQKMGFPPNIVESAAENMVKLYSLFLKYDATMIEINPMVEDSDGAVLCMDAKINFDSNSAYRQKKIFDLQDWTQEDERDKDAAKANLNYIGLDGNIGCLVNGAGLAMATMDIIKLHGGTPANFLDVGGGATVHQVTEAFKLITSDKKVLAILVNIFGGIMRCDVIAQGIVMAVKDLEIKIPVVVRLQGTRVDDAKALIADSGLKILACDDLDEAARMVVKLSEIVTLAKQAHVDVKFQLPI

The target in experiment [2] is Inosine-5'-monophosphate dehydrogenase 2 (Homo sapiens, UniProt P12268).
Experiment [3] deals with RAC-gamma serine/threonine-protein kinase (Homo sapiens, UniProt Q9Y243).
RAC-gamma serine/threonine-protein kinase, sequence (Q9Y243 whole entry): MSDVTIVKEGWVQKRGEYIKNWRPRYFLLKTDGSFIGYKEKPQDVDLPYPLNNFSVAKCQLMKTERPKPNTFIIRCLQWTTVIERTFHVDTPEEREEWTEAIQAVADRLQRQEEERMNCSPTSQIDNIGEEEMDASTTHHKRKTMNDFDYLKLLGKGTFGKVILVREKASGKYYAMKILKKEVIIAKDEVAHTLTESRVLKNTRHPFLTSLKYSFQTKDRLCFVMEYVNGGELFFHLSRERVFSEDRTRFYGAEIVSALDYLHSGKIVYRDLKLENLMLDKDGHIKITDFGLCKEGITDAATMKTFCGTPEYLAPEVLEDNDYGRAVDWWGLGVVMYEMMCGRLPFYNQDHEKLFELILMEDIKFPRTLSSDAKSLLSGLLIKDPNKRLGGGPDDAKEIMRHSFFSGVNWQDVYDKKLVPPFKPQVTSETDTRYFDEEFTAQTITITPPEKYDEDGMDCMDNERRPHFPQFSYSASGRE
For experiment [4], the target named is Ribosomal protein S6 kinase alpha-6 (Homo sapiens, UniProt Q9UK32).
Ribosomal protein S6 kinase alpha-6, sequence (Q9UK32 whole entry): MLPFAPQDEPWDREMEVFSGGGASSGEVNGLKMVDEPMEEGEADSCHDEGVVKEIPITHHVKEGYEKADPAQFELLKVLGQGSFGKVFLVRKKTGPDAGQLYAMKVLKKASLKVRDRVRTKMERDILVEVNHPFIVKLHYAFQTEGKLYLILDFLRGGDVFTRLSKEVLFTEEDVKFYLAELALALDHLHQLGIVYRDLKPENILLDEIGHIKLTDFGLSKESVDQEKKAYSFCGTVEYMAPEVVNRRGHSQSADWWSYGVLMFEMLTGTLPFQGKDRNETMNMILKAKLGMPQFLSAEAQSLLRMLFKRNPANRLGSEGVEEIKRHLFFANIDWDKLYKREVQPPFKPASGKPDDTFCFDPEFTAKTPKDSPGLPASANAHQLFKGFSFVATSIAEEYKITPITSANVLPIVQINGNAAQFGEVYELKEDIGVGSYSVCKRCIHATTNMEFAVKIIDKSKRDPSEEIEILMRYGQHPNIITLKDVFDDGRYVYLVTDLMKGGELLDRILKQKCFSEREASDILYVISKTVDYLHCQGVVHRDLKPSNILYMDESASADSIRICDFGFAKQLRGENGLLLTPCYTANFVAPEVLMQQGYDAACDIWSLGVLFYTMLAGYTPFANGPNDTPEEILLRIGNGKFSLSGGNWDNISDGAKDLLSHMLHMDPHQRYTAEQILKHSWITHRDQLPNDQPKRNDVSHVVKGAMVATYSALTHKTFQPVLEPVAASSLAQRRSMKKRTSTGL
Experiment [5] has as its target T2, Uncharacterized protein FLJ45252 (Homo sapiens, UniProt Q6ZSR9).
T2 sequence (Q6ZSR9 whole entry): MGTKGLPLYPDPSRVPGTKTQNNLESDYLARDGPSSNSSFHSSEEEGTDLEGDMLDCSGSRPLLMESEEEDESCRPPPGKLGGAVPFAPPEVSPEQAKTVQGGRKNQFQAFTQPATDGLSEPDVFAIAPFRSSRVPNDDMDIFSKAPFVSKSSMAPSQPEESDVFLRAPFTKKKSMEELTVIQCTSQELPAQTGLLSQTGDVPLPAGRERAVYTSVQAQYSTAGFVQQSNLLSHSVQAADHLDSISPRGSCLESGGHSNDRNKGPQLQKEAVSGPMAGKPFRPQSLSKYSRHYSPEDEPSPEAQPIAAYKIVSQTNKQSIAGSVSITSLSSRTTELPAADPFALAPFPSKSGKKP
To be noted: read-out: Kd apparent; k-562, colo 205, sk-n-be(2) and mv-4-11.

Experiment [6] addresses T3, Phosphorylase b kinase gamma catalytic chain, liver/testis isoform (Homo sapiens, UniProt P15735).
T3 sequence (P15735 whole entry): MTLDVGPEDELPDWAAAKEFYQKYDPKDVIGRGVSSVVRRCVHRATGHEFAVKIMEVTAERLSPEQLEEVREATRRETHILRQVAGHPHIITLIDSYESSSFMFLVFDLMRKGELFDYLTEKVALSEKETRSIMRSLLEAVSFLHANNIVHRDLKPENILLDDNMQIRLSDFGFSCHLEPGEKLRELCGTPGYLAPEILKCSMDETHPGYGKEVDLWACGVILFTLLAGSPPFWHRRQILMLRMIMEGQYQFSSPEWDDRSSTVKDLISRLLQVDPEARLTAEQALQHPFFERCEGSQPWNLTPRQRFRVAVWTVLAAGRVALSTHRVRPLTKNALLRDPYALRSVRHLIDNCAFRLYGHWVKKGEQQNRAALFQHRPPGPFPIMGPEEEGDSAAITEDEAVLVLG

Experiment [7] concerns the target Protein kinase C beta type (Homo sapiens, UniProt P05771).
Experiment [8] concerns the target T4, AarF domain-containing protein kinase 1 (Homo sapiens, UniProt Q86TW2).
T4 sequence (Q86TW2 whole entry): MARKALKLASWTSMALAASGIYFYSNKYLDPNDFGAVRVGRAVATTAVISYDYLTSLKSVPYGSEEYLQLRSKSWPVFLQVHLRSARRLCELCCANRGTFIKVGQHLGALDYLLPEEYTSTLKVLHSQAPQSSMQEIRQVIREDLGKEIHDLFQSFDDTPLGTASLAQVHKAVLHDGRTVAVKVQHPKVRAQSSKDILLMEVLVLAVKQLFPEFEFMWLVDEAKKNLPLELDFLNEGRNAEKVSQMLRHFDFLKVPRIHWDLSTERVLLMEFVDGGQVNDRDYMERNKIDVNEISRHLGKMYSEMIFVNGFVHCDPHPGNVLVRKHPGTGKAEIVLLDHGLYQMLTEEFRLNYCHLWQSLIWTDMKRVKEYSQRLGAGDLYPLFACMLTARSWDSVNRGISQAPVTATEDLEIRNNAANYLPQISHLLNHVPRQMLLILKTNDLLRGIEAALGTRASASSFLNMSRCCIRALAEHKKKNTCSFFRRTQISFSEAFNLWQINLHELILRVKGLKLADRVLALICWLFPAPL

Experiment [9] has as its target T5, Beta-adrenergic receptor kinase 1 (Homo sapiens, UniProt P25098).
T5 sequence (P25098 whole entry): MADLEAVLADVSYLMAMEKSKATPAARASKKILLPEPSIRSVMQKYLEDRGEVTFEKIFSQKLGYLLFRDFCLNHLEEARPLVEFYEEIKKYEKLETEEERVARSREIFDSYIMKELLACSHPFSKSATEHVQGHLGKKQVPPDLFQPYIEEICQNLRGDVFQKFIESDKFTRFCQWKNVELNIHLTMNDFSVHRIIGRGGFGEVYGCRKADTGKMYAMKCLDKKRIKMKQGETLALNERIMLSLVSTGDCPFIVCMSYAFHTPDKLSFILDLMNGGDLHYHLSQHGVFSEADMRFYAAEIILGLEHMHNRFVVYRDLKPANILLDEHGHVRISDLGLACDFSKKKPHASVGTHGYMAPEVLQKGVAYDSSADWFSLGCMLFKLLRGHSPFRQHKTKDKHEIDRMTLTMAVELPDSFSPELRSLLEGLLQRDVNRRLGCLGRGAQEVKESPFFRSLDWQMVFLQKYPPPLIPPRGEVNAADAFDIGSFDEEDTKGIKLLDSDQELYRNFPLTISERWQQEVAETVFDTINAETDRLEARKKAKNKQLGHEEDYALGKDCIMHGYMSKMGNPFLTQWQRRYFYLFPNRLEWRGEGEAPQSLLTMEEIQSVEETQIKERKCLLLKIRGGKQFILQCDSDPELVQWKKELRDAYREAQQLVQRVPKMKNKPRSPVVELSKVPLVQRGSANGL

Activity calls are given as the source filed them. Rule as the data show it, for most assays here: actives have a measured Kd and inactives only a lower limit. Where only a bound is given, the exact number is not on record here.
Also: in the data inactive means no Kd found up to 30 µM.

Protein kinase C beta type, sequence (P05771 whole entry, the tested form may be a part): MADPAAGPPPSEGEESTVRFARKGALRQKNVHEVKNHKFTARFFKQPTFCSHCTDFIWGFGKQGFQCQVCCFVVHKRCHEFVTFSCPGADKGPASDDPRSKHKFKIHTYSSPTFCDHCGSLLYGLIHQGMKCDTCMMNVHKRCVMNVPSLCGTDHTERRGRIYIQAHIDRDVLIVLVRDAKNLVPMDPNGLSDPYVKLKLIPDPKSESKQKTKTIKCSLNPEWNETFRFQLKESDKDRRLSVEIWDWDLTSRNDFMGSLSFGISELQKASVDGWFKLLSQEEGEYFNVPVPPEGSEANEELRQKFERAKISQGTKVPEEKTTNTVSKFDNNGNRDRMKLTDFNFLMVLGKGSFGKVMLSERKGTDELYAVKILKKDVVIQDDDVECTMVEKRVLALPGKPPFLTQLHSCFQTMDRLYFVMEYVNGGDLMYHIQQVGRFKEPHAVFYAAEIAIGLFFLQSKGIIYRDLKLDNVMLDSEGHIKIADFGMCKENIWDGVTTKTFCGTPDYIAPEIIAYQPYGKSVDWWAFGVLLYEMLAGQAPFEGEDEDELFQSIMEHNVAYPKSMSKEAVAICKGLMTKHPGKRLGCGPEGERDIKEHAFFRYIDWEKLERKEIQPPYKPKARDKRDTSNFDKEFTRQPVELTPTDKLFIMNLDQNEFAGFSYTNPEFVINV

In the case of `CNC(=O)CN1CCC(Oc2cc3c(Nc4cccc(Cl)c4F)ncnc3cc2OC)CC1` [SAPITINIB], the Kd in experiment [1], in experiment [2], in experiment [3], in [4], in [5] and in experiment [6] was > 30 µM (inactive) throughout. For the same compound, the Kd in experiment [7], in experiment [8] and in experiment [9] was > 30 µM (inactive) each time.
On to `O=C(c1ccc(F)c(F)c1Nc1ccc(I)cc1F)N1CC(O)([C@@H]2CCCCN2)C1` [COBIMETINIB], for which the Kd in experiment [1], in [2], in [3], in experiment [4], in experiment [5] and in experiment [6] was > 30 µM (inactive) in each case. Also, the Kd in [7], in [8] and in experiment [9] was > 30 µM (inactive) each time.
Take `Cc1ccc(S(=O)(=O)Nc2nc3ccccc3nc2Nc2ccc3nsnc3c2)cc1`: the Kd in [1], in experiment [2], in experiment [3], in experiment [4], in [5] and in experiment [6] was > 30 µM (inactive) in each case. In addition, the Kd in experiment [7], in [8] and in experiment [9] was > 30 µM (inactive) throughout.
Turning to `CCS(=O)(=O)N1CC(CC#N)(n2cc(-c3ncnc4[nH]ccc34)cn2)C1` [BARICITINIB], the Kd is > 30 µM (inactive) in experiment [1]; > 30 µM (inactive) in experiment [2]; > 30 µM (inactive) in experiment [3]; > 30 µM (inactive) in experiment [4]; 0.078 µM (active) in experiment [5]; > 30 µM (inactive) in experiment [6]. Further, the Kd is 26.3 µM (active) in experiment [7], > 30 µM (inactive) in [8] and > 30 µM (inactive) in experiment [9].
Turning to `Cc1ccc(-n2nc(C(C)(C)C)cc2NC(=O)NCc2cc(F)ccc2Oc2ccc3c(cnn3CCO)c2)cc1` [PEXMETINIB], the Kd in experiment [1], in experiment [2], in [3], in experiment [4], in experiment [5] and in experiment [6] was > 30 µM (inactive) in each case. Further, the Kd in experiment [7], in experiment [8] and in [9] was > 30 µM (inactive) in each case.
Consider `CNS(=O)(=O)Nc1nccc(Cc2c(C)c3ccc(Oc4ncccn4)cc3oc2=O)c1F` [AVUTOMETINIB], for which the Kd in experiment [1], in experiment [2], in experiment [3], in [4], in [5] and in experiment [6] was > 30 µM (inactive) each time. For the same compound, the Kd in [7], in experiment [8] and in experiment [9] was > 30 µM (inactive) throughout.
As to `COc1ccc(-c2ccc3c(N4CCOC[C@@H]4C)nc(N4CCOC[C@@H]4C)nc3n2)cc1CO` [AZD-8055], the Kd in experiment [1], in experiment [2], in experiment [3], in experiment [4], in experiment [5] and in experiment [6] was > 30 µM (inactive) throughout. In addition, the Kd in experiment [7], in experiment [8] and in experiment [9] was > 30 µM (inactive) in each case.
For `C1=C/COCc2cc(ccc2OCCN2CCCC2)Nc2nccc(n2)-c2cccc(c2)COC/1` [PACRITINIB], the Kd is > 30 µM (inactive) in [1]; > 30 µM (inactive) in experiment [2]; > 30 µM (inactive) in experiment [3]; > 30 µM (inactive) in [4]; 0.052 µM (active) in experiment [5]; > 30 µM (inactive) in experiment [6]. Also, the values for the Kd in [7], in [8] and in experiment [9] were 7.24 µM (active), 0.033 µM (active) and > 30 µM (inactive), respectively.
Regarding `O=C(O)[C@]1(Cc2cccc(Nc3nccs3)n2)CC[C@@H](Oc2cccc(Cl)c2F)CC1` [MK-5108], the Kd in [1], in experiment [2], in experiment [3], in [4], in experiment [5] and in experiment [6] was > 30 µM (inactive) throughout. Besides, the Kd in experiment [7], in experiment [8] and in [9] was > 30 µM (inactive) throughout.
Consider `COc1cc2nccc(Oc3ccc(NC(=O)Nc4cc(C)on4)c(Cl)c3)c2cc1OC` [TIVOZANIB], for which the Kd in [1], in experiment [2], in experiment [3], in experiment [4], in experiment [5] and in [6] was > 30 µM (inactive) throughout. For the same compound, the Kd in experiment [7], in experiment [8] and in [9] was > 30 µM (inactive) in each case.
Take `CN1CCC(CNc2ccc3ncc(-c4cccc(OC(F)(F)F)c4)n3n2)CC1` [SGI-1776]: the Kd in experiment [1] is > 30 µM (inactive); in experiment [2], > 30 µM (inactive); in experiment [3], > 30 µM (inactive); in [4] it was 23.8 µM (active); in experiment [5], > 30 µM (inactive); in [6], > 30 µM (inactive). In addition, the Kd in experiment [7], in experiment [8] and in [9] was > 30 µM (inactive) in each case.
